From the supplement of paper PMC10307832

Columns and labels:
Assay in all cases: relative viability (nuclei count vs DMSO), 5 days (fraction); higher = more cells survive
[1] = compound: CN(C/C=C/C1=CC=C(C=C1)Cl)CC2=CC=CC=C2N(CCO)S(=O)(=O)C3=CC=C(C=C3)OC [KN-93] + CC(C)C[C@H](NC(=O)[C@H](Cc1ccccc1)NC(=O)c1cnccn1)B(O)O [Bortezomib] (partner 0.002 µM)
Summary of the method: (§1)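 After 5 days of treatment, lung cancer cells in 1536-well plates were fixed and stained in a single step (final 0.05% Triton X-100, 1% formaldehyde, 1 ug/ml Hoechst) and their nuclei counted on 4× images. Treatment had been applied by pin tool the day after seeding as one drug alone or as a fixed anchor-drug dose with five library-drug doses (not always all listed) in √10 steps. Relative viability is the nuclei count of treated wells divided by that of vehicle wells, and values are medians of duplicate plates.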

[2] = compound: CN(C/C=C/C1=CC=C(C=C1)Cl)CC2=CC=CC=C2N(CCO)S(=O)(=O)C3=CC=C(C=C3)OC [KN-93] + N=C(N)NC(=N)NCCc1ccccc1 [Phenformin] (partner 250 µM)
Summary of the method: as §1

[3] = compound: CN(C/C=C/C1=CC=C(C=C1)Cl)CC2=CC=CC=C2N(CCO)S(=O)(=O)C3=CC=C(C=C3)OC [KN-93] + Nc1nc2[nH]cc(CCc3ccc(C(=O)N[C@@H](CCC(=O)O)C(=O)O)cc3)c2c(=O)[nH]1 [Pemetrexed] (partner 0.2 µM)
Summary of the method: as §1

[4] = compound: CN(C/C=C/C1=CC=C(C=C1)Cl)CC2=CC=CC=C2N(CCO)S(=O)(=O)C3=CC=C(C=C3)OC [KN-93] + C[C@]1(O)C[C@@H](c2nc(-c3ccc4ccc(-c5ccccc5)nc4c3)c3c(N)nccn32)C1 [Linsitinib] (partner 1 µM)
Summary of the method: as §1

[5] = compound: CN(C/C=C/C1=CC=C(C=C1)Cl)CC2=CC=CC=C2N(CCO)S(=O)(=O)C3=CC=C(C=C3)OC [KN-93] + Cc1cc(Nc2cc(N3CCN(C)CC3)nc(Sc3ccc(NC(=O)C4CC4)cc3)n2)n[nH]1 [Tozasertib] (partner 0.1 µM)
Summary of the method: as §1

Cell Line	relative viability ([1]; first compound 0.08 µM)	relative viability ([1]; first compound 0.253 µM)	relative viability ([1]; first compound 2.53 µM)	relative viability ([1]; first compound 8 µM)	relative viability ([2]; first compound 0.08 µM)	relative viability ([2]; first compound 0.253 µM)	relative viability ([2]; first compound 2.53 µM)	relative viability ([2]; first compound 8 µM)	relative viability ([3]; first compound 0.08 µM)	relative viability ([3]; first compound 0.253 µM)	relative viability ([3]; first compound 2.53 µM)	relative viability ([3]; first compound 8 µM)	relative viability ([4]; first compound 0.08 µM)	relative viability ([4]; first compound 0.253 µM)	relative viability ([4]; first compound 2.53 µM)	relative viability ([4]; first compound 8 µM)	relative viability ([5]; first compound 0.08 µM)	relative viability ([5]; first compound 0.253 µM)	relative viability ([5]; first compound 2.53 µM)	relative viability ([5]; first compound 8 µM)
EPLC-272H	0.863	1.39	0.982	0.752	0.276	0.299	0.276	0.25	0.422	0.274	0.285	0.211	1.15	1.27	1.21	0.871	0.234	0.213	0.317	0.227
RERF-LC-KJ	1.07	1.2	1.09	0.928	0.365	0.409	0.462	0.307	0.504	0.485	0.46	0.461	0.82	0.82	0.967	0.611	0.448	0.477	0.405	0.271
EKVX	0.81	1.33	1.26	0.389	0.23	0.224	0.239	0.203	0.382	0.346	0.454	0.244	0.959	0.872	1.03	0.748	0.378	0.48	0.369	0.301
LK-2	–	–	–	–	0.505	0.398	0.341	0.233	0.275	0.273	0.288	0.2	0.605	0.609	0.634	0.479	0.212	0.191	0.163	0.158
NCI-H596	1.02	1.29	1.18	0.942	0.728	0.95	0.69	0.45	0.528	0.493	0.589	0.455	1	1.19	1.03	0.89	0.783	1.02	1.06	0.747
NCI-H322M	1.36	1.21	1.29	1.14	0.753	0.746	0.838	0.604	0.641	0.628	0.701	0.614	0.988	0.935	0.958	0.803	0.505	0.502	0.524	0.489
NCI-H1651	0.976	1.03	0.987	0.805	0.369	0.44	0.369	0.321	0.611	0.701	0.567	0.511	0.816	1.33	1.11	0.622	0.647	0.627	0.906	0.509
IA-LM	0.738	0.875	0.991	0.481	–	–	–	–	–	–	–	–	0.608	0.495	0.463	0.827	–	–	–	–
NCI-H1734	0.941	0.902	1.1	0.566	0.363	0.446	0.381	0.411	0.457	0.478	0.399	0.417	0.855	0.949	1.03	0.734	0.254	0.27	0.264	0.215
